{"source": "patent US12043630B2", "about": "“Polymorphic form of TG02 for treating cancer” (Cothera Bioscience, Inc., priority 2017, dated 2024)", "type_in_all_cases": "physicochemical", "key": {"[1]": {"test": "Storage at elevated temperature and relative humidity, re-analysis by XRPD", "conditions": "for XRPD following storage at elevated temperatures and relative humidity: 28 days", "excerpt": "X-ray Powder Diffraction (XRPD or PXRD) diffractograms were collected on a Bruker AXS C2 GADDS, Bruker AXS DB Advance, PANalytical Empyrean, or similar diffractometer using Cu Kα radiation.\nProton NMR was consistent with the proposed structure. However, as the methylene protons of the citric acid overlapped with the D6-DMSO reference peak, the stoichiometric equivalence of citrate acid is slightly offset. […] Differential scanning calorimetry thermal events included a single broad endotherm at 204.5° C. (366.9 J/g).\nProton NMR analysis was consistent with the proposed structure, although there was overlap of the methylene protons of the citrate and the D6-DMSO reference peak. […] (327.7 J/g).\nThese additional peaks remained throughout the 28 days storage period. This may be caused by dehydration of the hydrate. Proton NMR analysis was consistent with the proposed structure, although there was overlap of the methylene protons of the citrate and the D6-DMSO reference peak. […] Differential scanning calorimetry consisted of a broad, asymmetrical endotherm between 25-115° C. (70.2 J/g) followed by a large endotherm at 186.0° C. (313.4 J/g), possibly due to the sample melt and dissolution of the salt. […] Water content was determined by Karl Fischer analysis to be 3.3%, equating to 1 molar equivalent of water."}, "[2]": {"test": "Gravimetric Vapour Sorption (GVS)", "conditions": "for Hygroscopicity by GVS analysis / GVS uptake: 25° C.; for GVS uptake: between 0-90% RH", "protocol": "Sorption isotherms were obtained using a SMS DVS Intrinsic moisture sorption analyser, controlled by DVS Intrinsic Control software. The sample temperature was maintained at 25° C. by the instrument controls. The humidity was controlled by mixing streams of dry and wet nitrogen, with a total flow rate of 200 ml/min. The relative humidity was measured by a calibrated Rotronic probe (dynamic range of 1.0-100% RH), located near the sample. The weight change, (mass relaxation) of the sample as a function of % RH was constantly monitored by a microbalance (accuracy±0.005 mg).\nTypically, 5-30 mg of sample was placed in a tared mesh stainless steel basket under ambient conditions. The sample was loaded and unloaded at 40% RH and 25° C. (typical room conditions). A moisture sorption isotherm was performed as outlined below (2 scans per complete cycle). The standard isotherm was performed at 25° C. at 10% RH intervals over a 0-90% RH range. Typically, a double cycle (4 scans) was carried out. Data analysis was carried out within Microsoft Excel using the DVS Analysis Suite.\nThe sample was recovered after completion of the isotherm and re-analysed by XRPD."}, "[3]": {"test": "Thermodynamic Aqueous Solubility", "conditions": "aqueous media; for Thermodynamic solubility: 25° C., 24 hours", "protocol": "Aqueous solubility was determined by suspending sufficient compound in relevant media to give a maximum final concentration of ≥10 mg/ml of the parent freeform of the compound. The suspension was equilibrated at 25° C., on a Heidolph plate shaker set to 750 rpm for 24 hours. The pH of the saturated solution was then measured and the suspension filtered through a glass fibre C filter (particle retention 1.2 μm) and diluted appropriately. Quantitation was by HPLC with reference to a standard solution of approximately 0.15 mg/ml in DMSO. Different volumes of the standard, diluted and undiluted sample solutions were injected. The solubility was calculated using the peak areas determined by integration of the peak found at the same retention time as the principal peak in the standard injection."}, "[4]": {"test": "Slurry of mixed TG02 citrate polymorphs in solvents, XRPD of recovered solids (Method B)", "conditions": "4 days", "protocol": "Method B: A homogeneous mixture of TG02 Form X (citrate), TG02 Citrate Pattern 1 of U.S. Pat. No. 9,120,815, and TG02 Citrate Pattern 2 of U.S. Pat. No. 9,120,815 was treated with solvent (20 vol.) and agitated for 4 days at different temperatures (5° C., 25° C., and 50° C.). The recovered solids were air dried and analysed by XRPD."}, "[5]": {"conditions": "40° C./75% RH, 25° C./97% RH and 60° C./ambient RH"}}, "note": "Counter-ions that a name gives are not always drawn.", "data": [{"smiles": "CN1C/C=C/CCOc2cccc(c2)-c2ccnc(n2)Nc2cccc(c2)C1", "note": "[Form X (citrate), (16E)-14-methyl-20-oxa-5,7,14,26-tetraazatetracyclo[19.3.1.1(2,6).1(8,12)]heptacosa-1(25),2(26),3,5,8(27),9,11,16,21,23-decaene]", "values": [{"measurement": "XRPD following storage at elevated temperatures and relative humidity", "setting": "[1]; [5]", "value": "remained unchanged by XRPD"}, {"measurement": "XRPD following GVS analysis", "setting": "[2]", "value": "remained unchanged by XRPD"}, {"measurement": "Hygroscopicity by GVS analysis", "setting": "[2]", "value": "non-hygroscopic"}, {"measurement": "GVS uptake", "setting": "[2]", "value": 0.13, "unit": "%"}, {"measurement": "GVS maximum hysteresis", "setting": "[2]; between 40-60% RH", "value": 0.04, "unit": "%"}, {"measurement": "Thermodynamic solubility", "setting": "[3]", "value": 640, "unit": "µg/mL"}]}, {"smiles": "CN1C/C=C/CCOc2cccc(c2)-c2ccnc(n2)Nc2cccc(c2)C1", "note": "[TG02 (Citrate)]", "values": [{"measurement": "TG02 (Citrate) Polymorph recovered (XRPD)", "setting": "[4]; Acetone 20 vol., 5° C.", "value": "Form X"}, {"measurement": "TG02 (Citrate) Polymorph recovered (XRPD)", "setting": "[4]; Acetone 20 vol., 25° C.", "value": "Form X"}, {"measurement": "TG02 (Citrate) Polymorph recovered (XRPD)", "setting": "[4]; Acetone 20 vol., 50° C.", "value": "Form X"}, {"measurement": "TG02 (Citrate) Polymorph recovered (XRPD)", "setting": "[4]; Acetone:H2O (9:1) 20 vol., 5° C.", "value": "Pattern 2"}, {"measurement": "TG02 (Citrate) Polymorph recovered (XRPD)", "setting": "[4]; Acetone:H2O (9:1) 20 vol., 25° C.", "value": "Pattern 2"}, {"measurement": "TG02 (Citrate) Polymorph recovered (XRPD)", "setting": "[4]; Acetone:H2O (9:1) 20 vol., 50° C.", "value": "Pattern 2"}, {"measurement": "TG02 (Citrate) Polymorph recovered (XRPD)", "setting": "[4]; DCM:H2O (9:1) 20 vol., 5° C.", "value": "Pattern 2 + Form X"}, {"measurement": "TG02 (Citrate) Polymorph recovered (XRPD)", "setting": "[4]; DCM:H2O (9:1) 20 vol., 25° C.", "value": "Pattern 2"}, {"measurement": "TG02 (Citrate) Polymorph recovered (XRPD)", "setting": "[4]; DCM:H2O (9:1) 20 vol., 50° C.", "value": "Form X"}, {"measurement": "TG02 (Citrate) Polymorph recovered (XRPD)", "setting": "[4]; EtOAc 20 vol., 5° C.", "value": "Pattern 2 + Form X"}, {"measurement": "TG02 (Citrate) Polymorph recovered (XRPD)", "setting": "[4]; EtOAc 20 vol., 25° C.", "value": "Form X"}, {"measurement": "TG02 (Citrate) Polymorph recovered (XRPD)", "setting": "[4]; EtOAc 20 vol., 50° C.", "value": "Form X"}, {"measurement": "TG02 (Citrate) Polymorph recovered (XRPD)", "setting": "[4]; H2O 20 vol., 5° C.", "value": "Pattern 2"}, {"measurement": "TG02 (Citrate) Polymorph recovered (XRPD)", "setting": "[4]; H2O 20 vol., 25° C.", "value": "Pattern 2"}, {"measurement": "TG02 (Citrate) Polymorph recovered (XRPD)", "setting": "[4]; H2O 20 vol., 50° C.", "value": "Pattern 2"}, {"measurement": "TG02 (Citrate) Polymorph recovered (XRPD)", "setting": "[4]; IPA 20 vol., 5° C.", "value": "Form X"}, {"measurement": "TG02 (Citrate) Polymorph recovered (XRPD)", "setting": "[4]; IPA 20 vol., 25° C.", "value": "Form X"}, {"measurement": "TG02 (Citrate) Polymorph recovered (XRPD)", "setting": "[4]; IPA 20 vol., 50° C.", "value": "Form X"}, {"measurement": "TG02 (Citrate) Polymorph recovered (XRPD)", "setting": "[4]; TBME 20 vol., 5° C.", "value": "Pattern 2 + Form X"}, {"measurement": "TG02 (Citrate) Polymorph recovered (XRPD)", "setting": "[4]; TBME 20 vol., 25° C.", "value": "Pattern 2 + Form X"}, {"measurement": "TG02 (Citrate) Polymorph recovered (XRPD)", "setting": "[4]; TBME 20 vol., 50° C.", "value": "Form X"}, {"measurement": "TG02 (Citrate) Polymorph recovered (XRPD)", "setting": "[4]; THF:H2O (9:1) 20 vol., 5° C.", "value": "Pattern 2"}, {"measurement": "TG02 (Citrate) Polymorph recovered (XRPD)", "setting": "[4]; THF:H2O (9:1) 20 vol., 25° C.", "value": "Pattern 2"}, {"measurement": "TG02 (Citrate) Polymorph recovered (XRPD)", "setting": "[4]; THF:H2O (9:1) 20 vol., 50° C.", "value": "Pattern 2"}]}, {"smiles": "CN1C/C=C/CCOc2cccc(c2)-c2ccnc(n2)Nc2cccc(c2)C1", "note": "[TG02 Citrate Pattern 1, (16E)-14-methyl-20-oxa-5,7,14,26-tetraazatetracyclo[19.3.1.1(2,6).1(8,12)]heptacosa-1(25),2(26),3,5,8(27),9,11,16,21,23-decaene]", "values": [{"measurement": "XRPD following storage at elevated temperatures and relative humidity", "setting": "[1]; [5]", "value": "remained unchanged by XRPD"}, {"measurement": "XRPD following GVS analysis", "setting": "[2]", "value": "remained unchanged by XRPD"}, {"measurement": "Hygroscopicity by GVS analysis", "setting": "[2]", "value": "slightly-hygroscopic"}, {"measurement": "GVS uptake", "setting": "[2]", "value": 1.0, "unit": "%"}, {"measurement": "GVS maximum hysteresis", "setting": "[2]; between 40-50% RH", "value": 0.2, "unit": "%"}, {"measurement": "XRPD following thermodynamic solubility analysis", "setting": "[3]", "value": "form change from TG02 Citrate Pattern 1 to TG02 Citrate Pattern 2"}, {"measurement": "Thermodynamic solubility", "setting": "[3]", "value": 330, "unit": "µg/mL"}]}, {"smiles": "CN1C/C=C/CCOc2cccc(c2)-c2ccnc(n2)Nc2cccc(c2)C1", "note": "[TG02 Citrate Pattern 2, (16E)-14-methyl-20-oxa-5,7,14,26-tetraazatetracyclo[19.3.1.1(2,6).1(8,12)]heptacosa-1(25),2(26),3,5,8(27),9,11,16,21,23-decaene]", "values": [{"measurement": "XRPD following storage at elevated temperatures and relative humidity", "setting": "[1]; 40° C./75% RH and 25° C./97% RH", "value": "remained unchanged by XRPD"}, {"measurement": "XRPD following storage", "setting": "[1]; 60° C./ambient RH, peaks remained throughout 28 days", "value": "additional peaks being present in the XRPD diffractogram after 7 days"}, {"measurement": "XRPD following GVS analysis", "setting": "[2]", "value": "remained unchanged by XRPD"}, {"measurement": "Hygroscopicity by GVS analysis", "setting": "[2]", "value": "hygroscopic"}, {"measurement": "GVS uptake", "setting": "[2]", "value": 3.84, "unit": "%"}, {"measurement": "GVS maximum hysteresis", "setting": "[2]; between 10-30% RH", "value": 1.4, "unit": "%"}, {"measurement": "XRPD following thermodynamic solubility analysis", "setting": "[3]", "value": "remained unchanged by XRPD"}, {"measurement": "Thermodynamic solubility", "setting": "[3]", "value": 230, "unit": "µg/mL"}]}]}
